As usually defined, the Kd is a measure of binding affinity in units of concentration.

The nature of test [1]: Solid phase assay for lead: protein on nitrocellulose with chromogenic dye. As to conditions: combined results, various buffers, pH, salts and dyes. The method, then: A solid phase assay for the detection of lead was also developed using one or more synthetically produced lead-binding proteins. Both TB4 and ACBP and the various mutants that have been generated from them can be used in this assay. The experiment is performed by binding the protein to a solid surface support, such as nitrocellulose paper, cotton, glass microfibers, or polystyrene beads using, for example, methods described herein. Then the sample to be tested, such as saliva or blood, is placed onto the surface and allowed to react with the protein. After washing with buffer, or example a neutral non-chelating buffer to remove any unreacted material, the sample is treated with a ligand that can detect a lead-leading binding protein complex, for example, a ligand that can cause a color chance upon detecting a lead-protein complex. Examples of such ligands include, sodium sulfide and sodium rhodizonic acid. Furthermore, the concentration of the lead in the sample being tested may be determined by the intensity of the spot produced upon binding of the dye. […]
As a control, the assay was tested using solutions containing several different buffers, pH conditions, and salts for reaction with the sodium sulfide and sodium rhodizonic acid dyes used. […] The pH was determined empirically for rhodizonic acid over a range of pH 4 to pH 8. […]

The conditions of test [2]: lead binding; Quintanilla-Vega 1995, Smith 1998; read-out: dissociation constant (Kd) of high affinity lead-binding region; cited from earlier work.

On to “thymosin beta-4 (MSDKPDMAEIEKFDKSKLKKTETQEKNPLPSKETIEQEKQAGES; listed as Homo sapiens) [TB4]”, for which the “performance of solid phase lead detection assay” value in test [1] is “works well under various conditions”. Further, the Kd in test [2] is approximately 1 nM.

The values above are taken from US20050049201A1, “Detection and removal of lead using lead-binding proteins” (priority 2001, published 2005).
